Experimental data taken from PubChem BioAssay AID2305 (GlaxoSmithKline (GSK), 2010).
Several values for one entry are separate records, joined by “and”; a condition that tells them apart may be missing. Identical values can stand only once.

system: P. falciparum 3D7 growth, pLDH absorbance; test: blood-stage malaria parasite growth potency – strain 3D7, dose response (AID 2305)

SMILES	IC50
C#CCCOc1ccc2ccccc2c1CNCCCCCCNCc1c(OCCC#C)ccc2ccccc12	810 nM
COc1cccc(NC(=O)Nc2cc(-c3ccc4[nH]ncc4c3)cc3c2CNC3=O)c1	120 nM
O=S(=O)(NCCN1CCCC1)c1ccc(-c2ccc(CNCc3ccc(F)cc3)cc2)cc1	790 nM
COc1ccc(C2CC(c3ccccc3)=NN2C(=O)c2ccc(Br)o2)cc1 (configuration not stated)	320 nM
COc1cc2c(C3CCN(CC4CCN(C(=O)/C=C/c5ccc(Cl)c(Cl)c5)CC4)CC3)c[nH]c2cn1	730 nM
Cc1nn(CC(C)C)c2sc(C(=O)N3CCN(S(=O)(=O)c4ccc(C#N)cc4)CC3)cc12	740 nM
COc1cc(C(=O)NC2CCN(Cc3ccccc3)CC2)ccc1-c1nc2cc(Cl)c(C)cc2[nH]1	300 nM
Cc1c(CCNC(=O)CCCN2CC(C)CC(C)C2)c2ccccc2n1C (configuration not stated)	1270 nM
CCCn1c(Sc2ccc(C#N)c([N+](=O)[O-])c2)nnc1-c1cc(OC)cc(OC)c1	720 nM
CC(C)Oc1ccc2c(c1)OC(c1ccccc1)(C(F)(F)F)NC2=O (configuration not stated)	140 nM
CC[C@H]1CN2CC[C@@H]1C[C@H]2[C@H](O)c1cc(N2CCC(c3ccccc3)CC2)nc2ccc(OC)cc12	350 nM
Cc1cc(N[C@@H](Cc2ccccc2)C(=O)Nc2ccccc2)nc(NCCc2ccc(F)cc2)n1	860 nM
CCCCCCn1c(Sc2ccc(C#N)c([N+](=O)[O-])c2)nnc1-c1cccc(Cl)c1	610 nM
Cc1ccc(Oc2ccccc2NC(=O)CCc2nc3ccccc3c(=O)[nH]2)cc1	830 nM
CN(C)CCOc1cc(O)c2c(c1)OC(C)(C)C=C2c1cccs1	290 nM
CO/C(=C/C=C/c1cc2cc(Cl)c(Cl)cc2[nH]1)C(=O)NC1CC(C)(C)N(C)C(C)(C)C1	780 nM
COc1ccccc1CCN(C)CCN1CCC(NC(=O)c2ccc(-c3ccc(C(F)(F)F)cc3)cc2)CC1	1030 nM
O=C(NCCN1CCCC1)c1cccc(-c2ccc(-c3nc4ccc(F)cc4[nH]3)cc2)c1	720 nM
NC(=O)c1ccc(-n2cnc3cc(F)ccc32)cc1OCc1ccccc1C(F)(F)F (tested in a mixture with another compound)	360 nM
c1ccc(Oc2ccc(Nc3ccnc4cc(-c5cccc(CNCCN6CCOCC6)c5)ccc34)cc2)cc1	390 nM
O=C(/C=C/c1ccc(Cl)c(Cl)c1)NCCCCCN1CCC(NC(=O)Nc2ccc(Oc3ccccc3)cc2)C1 (configuration not stated)	590 nM
O=C1Nc2cccc3c2C1(CCCCN1CCC(c2cc4ccncc4[nH]2)CC1)CCC3 (configuration not stated)	790 nM and 910 nM
COc1cccc(CN2CCCC(CCC(=O)Nc3ccc(C(F)(F)F)cc3)C2)c1O (configuration not stated)	750 nM
Cc1ccc(Nc2nc(NN=Cc3ccc(-c4ccc([N+](=O)[O-])cc4)o3)nc(N3CCOCC3)n2)cc1Cl	650 nM
Nc1cc(-c2cccc(Cl)c2)nn1-c1ccnc2cc(Cl)ccc12	750 nM

SMILES	IC50
Cc1nnc2c(NC(=O)NC3CCCC3)cc3cc(-c4ccc(CN5CCN(C)CC5)cc4)ccc3n12	1020 nM
Cc1ccc(-c2cnc(N)c3cc(-c4ccnc(N)n4)ccc23)cc1	810 nM
CCCNCc1ccc(-c2ccc(CN(Cc3cnc(C)cn3)C(=O)/C=C/c3ccccc3C)cc2)nc1	920 nM
CCOC(=O)CN(c1ccc(Br)cc1OCCOc1cc(Br)ccc1N(CC(=O)OCC)C(C)C(=O)OCC)C(C)C(=O)OCC (configuration not stated)	810 nM
Oc1cc(Nc2ccnc3cc(I)ccc23)c(F)cc1Cl	830 nM
CC(=O)c1ccc(-c2ccccc2)s1	1080 nM
c1cc2nc(CCCCCc3nc4ccc(C5=N[C@@H]6CCCC[C@@H]6N5)cc4[nH]3)[nH]c2cc1C1=N[C@@H]2CCCC[C@@H]2N1	200 nM
COC(=O)c1cccc(CNCc2cccc(-c3ccc(-c4nc5ccccc5[nH]4)s3)c2)c1	490 nM
CC(=O)Nc1ccc(OCCN(Cc2ccccc2C(F)(F)F)c2ccc(C#N)c(C(F)(F)F)c2)cc1	440 nM
O=S(=O)(c1ccc(OCc2ccc(Cl)cc2)cc1)c1cc2c(cc1OCc1ccccc1)CCN(CC1CC1)CC2	1110 nM
COC(=O)c1cccc(CN(CCC(O)(C(F)(F)F)C(F)(F)F)C(=O)CC2CCCC2)c1	910 nM
COc1ccc2nccc([C@@H](O)CN3CCC(NCc4nc5cc(F)c(F)cc5[nH]4)CC3)c2c1	530 nM
COCCNCc1nc(-c2ccc3c(Nc4ccc(F)c(O)c4)ccnc3c2)cs1	690 nM
CCC(O)(C#Cc1c(C)nc(N)nc1N)CC	640 nM
CC(C)CNC(=O)c1ccnc(-c2ccc(CNC3Cc4ccccc4C3)cc2)c1	790 nM
CCCCCc1cc(OC(C)=O)c2c(c1)OC(C)(C)C=C2C1=CCN(Cc2ccccc2)CC1	930 nM
COc1ccc(CN(C)CCCc2ccc(NC(=O)c3cc4ccccc4[nH]3)cc2)cc1OC	730 nM
O=C(N[C@@H](CC1CCCCC1)C(=O)NCCN1CCCCC1)c1ccc(O)c(-c2ccc(Cl)c(Cl)c2)c1	150 nM
O=C(Nc1ccc(OC2CCN(Cc3ccccc3)CC2)c(Cl)c1)c1cccs1	310 nM
Cc1nc(N)nc(N)c1OCc1cccc2c1ccc1ccccc12	100 nM
O=C(Nc1cccc(-c2nn3ncccc3c2-c2ccnc(Nc3ccc(N4CCOCC4)cc3)n2)c1)c1c(F)cccc1F	160 nM
N#Cc1ccc2c(c1)CCN(CCC1CCC(NC(=O)c3cc4ccccc4[nH]3)CC1)CC2 (configuration not stated)	1010 nM
CCOc1ccc(-c2nonc2NC(=O)c2ccc(OC)cc2)cc1OCC	820 nM
CC(CCc1ccccc1)NCC(O)c1cccc(C(F)(F)F)c1 (configuration not stated)	710 nM
O=C(Nc1ccccc1-c1nc2ccccc2s1)C(Cl)(Cl)Cl	640 nM

SMILES	IC50
Cc1nc2nc(N)nc(N)c2c(C)c1Cc1ccccc1	250 nM
COc1cc(C=CC(=O)N2CCC(CCN3CCC(c4c[nH]c5ccccc45)CC3)CC2)cc(OC)c1	910 nM
CC(=O)Nc1ccc(C(=O)Nc2cccc(-c3csc(-c4nc5ccccc5[nH]4)c3)c2)cn1	120 nM
Cc1cc2ncc(C(N)=O)c(Nc3ccc(N4CCOCC4)cc3)c2cc1S(C)(=O)=O	670 nM
CCCNCc1ccc(-c2ccc(CN(CCOC)C(=O)c3cnc(C)cn3)cc2)nc1	1250 nM
COC(=O)c1cc(C(O)CNC(C)CCCc2ccccc2)ccc1O (configuration not stated)	740 nM
Nc1c2c(nc3ccc(C(=O)Nc4cc(I)c(O)c(I)c4)cc13)CCCC2	1010 nM
O=C(/C=C/c1ccc(Cl)c(Cl)c1)NC1CCC(CN2CCC(c3nc4ncccc4[nH]3)CC2)CC1 (configuration not stated)	1230 nM
CCCc1cc(Cc2cnc(N)nc2N)c2cccnc2c1OC	670 nM
CSc1ccc(CN2CCC(NC(=O)c3ccc(-c4cccc(Cl)c4)s3)CC2)cc1	1290 nM
O=C(NCC1CC1)C1Cc2c([nH]c3ccc(Br)cc23)C2(CCN(CCc3ccccc3)CC2)N1 (configuration not stated)	910 nM
Cc1nn(C2CCS(=O)(=O)C2)c(C)c1C1Nc2ccccc2C(=O)N1Cc1ccc2c(c1)OCO2 (configuration not stated)	510 nM
COc1ccc2c(CNCCCCCCNCc3c(OC)ccc4cc(OC)ccc34)c(OC)ccc2c1	560 nM
O=S(=O)(Nc1ccc(CCN2CCCCC2CCN2CCCC2)cc1)c1cccc2cccnc12 (configuration not stated)	1300 nM
COc1ccc2nccc(N3CCC(CCNCc4cc5c(cn4)OCCO5)CC3)c2c1	870 nM
Cn1cncc1CCCN(Cc1ccc(-c2ccc(C(F)(F)F)cc2)cc1)C(=O)Cn1c(CCc2cccc(F)c2F)cc(=O)c2cccnc21	1250 nM
O=C(CNC1=NCCN1)Nc1ccc(NC(=O)Nc2ccc(NC(=O)CNC3=NCCN3)cc2)cc1	780 nM
CCN(CC)C(=O)C1CCCN(c2cc(C)nc(Nc3ccc(Cl)cc3)n2)C1 (configuration not stated)	720 nM
O=C(Cc1cccs1)NC(CCCN1CCC(Oc2cccc(Cl)c2)CC1)c1ccc(Cl)c(Cl)c1 (configuration not stated)	250 nM
Cc1ccnc2nc(C(=O)Nc3cc(Cl)ccc3N3CCOCC3)nn12	1240 nM
Cc1cccc2[nH]c(-c3ccc(-c4cccc(CN5CCCC(N)C5)c4)s3)nc12 (configuration not stated)	540 nM
OCCN1CCN(Cc2ccc(-c3cccc(-c4nc5ccc(F)cc5[nH]4)c3)cc2)CC1	610 nM
Cc1[nH]c(C)c(-c2ccc(Oc3ccc(O)cc3)cc2)c(=O)c1Cl	1040 nM
O=C(NCCC1CCN(CCc2c[nH]c3ccccc23)CC1)Nc1ccc(Cl)c(Cl)c1	830 nM
O=C(O)C[C@H](NC(=O)[C@@H]1CCCN1C(=O)c1cccc(-c2ccc(Cl)c(Cl)c2)c1)C(=O)O	860 nM

SMILES	IC50
CCn1c(SCc2ccc(F)cc2)nc2sc3c(c2c1=O)CCN(C)C3	250 nM
CCNc1cc(C(=O)N[C@@H](Cc2ccccc2)[C@H](O)CNC23CCC(CC2)CC3)cc(N2CCCCS2(=O)=O)c1	60 nM
Cc1c(Cl)ccc2sc(N3CCN(C(=O)c4ccc([N+](=O)[O-])o4)CC3)nc12	750 nM
Nc1ncnc2nc(-c3ccc(F)cc3)cc(-c3ccc(NC(=O)c4ccccc4)cc3)c12	640 nM
O=C1OC(c2cc3ccccc3n2S(=O)(=O)c2ccccc2)(c2cc3ccccc3n2S(=O)(=O)c2ccccc2)c2ccccc21	850 nM
Nc1nccc2ccc(-c3ccnc(NCc4cccnc4)n3)cc12	460 nM
CCN(CC)Cc1cc(Nc2ccnc3cc(Cl)ccc23)ccc1O	160 nM
c1cc(C2=N[C@H]3CCCC[C@@H]3N2)ccc1OCCCOc1ccc(C2=N[C@@H]3CCCC[C@H]3N2)cc1	730 nM
CCc1nc2nc(C)cc(Nc3ccc4c(c3)OCCO4)n2n1	1290 nM
Cc1cc2[nH]c(-c3ccc(C(=O)NCCCN4CCN(c5cccc(Cl)c5)CC4)s3)nc2cc1Cl	650 nM
Cc1cc(NC(=O)Nc2cccc(N(C)C)c2)c2ccccc2n1	200 nM
CCN(CC)CCN(CCN(CC)CC)c1ccc2c(c1)Sc1c(Cl)ccc(Cl)c1S2	880 nM
CCOC(=O)c1[nH]c(-c2ccc(-c3ccccc3)cc2)nc1N	420 nM
CS(=O)(=O)c1ccc(CNCc2ccc(-c3cccc(-c4nc5ccc(C(F)(F)F)cc5[nH]4)c3)cc2)cc1	140 nM
Cc1cccc(Nc2nc3nonc3nc2Nc2cccc(Cl)c2Cl)c1C	1030 nM
NC(=NCCc1ccccc1Cl)c1ccc2ccccc2c1	1630 nM
CN(CCCCNC(=O)/C=C/c1ccccc1)C1CC2(CCN(C(=O)OC(C)(C)C)CC2)c2ccccc21 (configuration not stated)	1140 nM
Cc1ccc(C)c(NC(=O)CC2C(=O)N(c3ccccc3)C(=S)N2Cc2ccco2)c1 (configuration not stated)	570 nM
Cc1[nH]nc2cc(Nc3nccc(Nc4ccc(Oc5ccccc5)cc4)n3)ccc12	600 nM
Cc1[nH]c(C)c(-c2ccc(Br)cc2)c(=O)c1Cl	840 nM
O=C(Nc1ccc(OC2CCN(Cc3ccsc3)CC2)c(Cl)c1)c1cccs1	600 nM
COc1ccc(Cl)cc1N1CCN(CCCNC(=O)c2ccc(-c3nc4cc(Cl)c(F)cc4[nH]3)s2)CC1	310 nM
